This note sets out measurements from ChEMBL document CHEMBL3739359, “New substituted 9-propyladenine derivatives as A2Aadenosine receptor antagonists” (Medchemcomm, 2015).

Experiment [1] has as its target T1, Adenosine receptor A2a (Homo sapiens, UniProt P29274). The experiment can be described thus: Displacement of [3H]NECA from human adenosine A2A receptor expressed in CHO cells. The class given is cell-based. In general terms: In a radioligand displacement assay an active substance lowers the binding of a labelled ligand.
For experiment [2], the target named is T2, Adenosine receptor A3 (Homo sapiens, UniProt P0DMS8). Kind of experiment: Displacement of [3H]HEMADO from human adenosine A3 receptor expressed in CHO cells. The experiment is classed as cell-based.
Experiment [3] addresses T3, Adenosine receptor A1 (Homo sapiens, UniProt P30542).
T3 sequence (P30542 whole entry): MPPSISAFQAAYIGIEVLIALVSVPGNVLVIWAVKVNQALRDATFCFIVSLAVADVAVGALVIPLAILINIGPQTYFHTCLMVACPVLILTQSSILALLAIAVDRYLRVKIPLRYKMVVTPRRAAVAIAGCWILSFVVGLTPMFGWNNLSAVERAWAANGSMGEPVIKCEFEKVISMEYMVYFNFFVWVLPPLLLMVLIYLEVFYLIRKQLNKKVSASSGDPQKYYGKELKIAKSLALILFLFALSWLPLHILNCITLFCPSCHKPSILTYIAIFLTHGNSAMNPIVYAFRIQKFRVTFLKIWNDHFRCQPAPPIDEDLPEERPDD
The experiment can be described thus: Displacement of [3H]CCPA from human adenosine A1 receptor expressed in CHO cells. The class given is cell-based.

Experiment [4] deals with T4, Adenosine receptor A2b (Homo sapiens, UniProt P29275).
T4 sequence (P29275 whole entry): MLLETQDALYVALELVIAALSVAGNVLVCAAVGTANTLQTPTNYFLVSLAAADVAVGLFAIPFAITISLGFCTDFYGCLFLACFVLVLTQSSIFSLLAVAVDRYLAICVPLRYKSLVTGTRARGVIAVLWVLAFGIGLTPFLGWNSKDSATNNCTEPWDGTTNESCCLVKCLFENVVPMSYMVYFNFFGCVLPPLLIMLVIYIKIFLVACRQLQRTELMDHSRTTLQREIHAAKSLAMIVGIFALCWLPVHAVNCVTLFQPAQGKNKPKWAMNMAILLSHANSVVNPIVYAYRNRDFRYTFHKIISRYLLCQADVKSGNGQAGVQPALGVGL
The experiment can be described thus: Antagonist activity at human adenosine A2B receptor expressed in CHO cells assessed as inhibition of NECA-stimulated adenylyl cyclase activity. The class given is functional, cell-based.

Experiment [5] has as its target T1, Adenosine receptor A2a. Kind of experiment: Binding affinity to adenosine A2A receptor (unknown origin).
The target in experiment [6] is T3, Adenosine receptor A1. The experiment can be described thus: Binding affinity to adenosine A1 receptor (unknown origin).
For experiment [7], the target named is T2, Adenosine receptor A3. The experiment can be described thus: Binding affinity to adenosine A3 receptor (unknown origin).
For experiment [8], the target named is T4, Adenosine receptor A2b. Kind of experiment: Binding affinity to adenosine A2B receptor (unknown origin).
Another experiment is filed under the species Homo sapiens. Kind of experiment: Selectivity ratio of Ki for adenosine A1 receptor (unknown origin) to Ki for adenosine A2A receptor (unknown origin).

T2 sequence (P0DMS8 whole entry, looked up): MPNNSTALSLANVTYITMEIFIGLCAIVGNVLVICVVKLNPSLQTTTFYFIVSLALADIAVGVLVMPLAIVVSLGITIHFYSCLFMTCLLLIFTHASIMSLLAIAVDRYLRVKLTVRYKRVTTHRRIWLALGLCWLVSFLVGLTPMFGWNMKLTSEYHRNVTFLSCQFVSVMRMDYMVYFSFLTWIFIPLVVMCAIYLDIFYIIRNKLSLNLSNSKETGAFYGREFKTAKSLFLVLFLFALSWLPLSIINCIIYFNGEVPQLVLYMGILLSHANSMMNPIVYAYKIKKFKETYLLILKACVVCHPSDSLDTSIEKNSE
T1 sequence (P29274 whole entry): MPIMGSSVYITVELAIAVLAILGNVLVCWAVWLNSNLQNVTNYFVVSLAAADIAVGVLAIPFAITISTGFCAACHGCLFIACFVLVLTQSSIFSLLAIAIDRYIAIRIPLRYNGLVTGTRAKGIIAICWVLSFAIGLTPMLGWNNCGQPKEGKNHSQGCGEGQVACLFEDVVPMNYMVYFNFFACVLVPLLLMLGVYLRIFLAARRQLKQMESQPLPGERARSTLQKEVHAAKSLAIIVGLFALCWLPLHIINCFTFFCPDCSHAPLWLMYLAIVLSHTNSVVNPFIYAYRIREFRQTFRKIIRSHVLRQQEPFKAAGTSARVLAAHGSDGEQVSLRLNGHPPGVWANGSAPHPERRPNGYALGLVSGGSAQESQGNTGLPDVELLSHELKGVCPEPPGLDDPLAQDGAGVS

The term Ki denotes a dissociation constant, usually derived from enzyme kinetics or from competition with a known ligand. Consider `CCCn1cnc2c(N)nc(NCc3ccccc3)nc21`, for which the Ki is 1400 nM on Adenosine receptor A2a [1], 5840 nM on Adenosine receptor A3 [2], 7600 nM on Adenosine receptor A1 [3] and over 30000 nM on Adenosine receptor A2b [4].

For `CCCn1cnc2c(N)nc(NCCCc3ccccc3)nc21`, the Ki on Adenosine receptor A2a [1] was 9110 nM; at Adenosine receptor A3 [2], 12600 nM; at Adenosine receptor A1 [3], 3640 nM; at Adenosine receptor A2b [4], over 30000 nM.

Turning to `CCCn1c(Br)nc2c(N)nc(NCc3ccccc3)nc21`, the Ki at Adenosine receptor A2a [1] is 36 nM; at Adenosine receptor A3 [2], 650 nM; on Adenosine receptor A1 [3], 358 nM; at Adenosine receptor A2b [4], 1740 nM.

For `CCCn1cnc2c(NCCc3ccccc3)ncnc21`, the Ki on Adenosine receptor A2a [1] is 12000 nM; on Adenosine receptor A3 [2] it was 16900 nM; at Adenosine receptor A1 [3] it was 19200 nM; at Adenosine receptor A2b [4], over 30000 nM.

In the case of `CCCn1cnc2c(N)nc(NCCc3ccccc3)nc21`, the Ki on Adenosine receptor A2a [1] is 738 nM; on Adenosine receptor A3 [2], 5880 nM; on Adenosine receptor A1 [3], 2330 nM; on Adenosine receptor A2b [4], 9250 nM.

As for `CCCn1c(-c2ccco2)nc2c(N)nc(NCCCc3ccccc3)nc21`, the Ki at Adenosine receptor A2a [1] stood at 113 nM; at Adenosine receptor A3 [2], 266 nM; on Adenosine receptor A1 [3], 230 nM; at Adenosine receptor A2b [4] it was 8240 nM.

For the compound `CCCn1c(Br)nc2c(N)nc(NCCCc3ccccc3)nc21`, the Ki at Adenosine receptor A2a [1] worked out at 284 nM; at Adenosine receptor A3 [2], 1950 nM; on Adenosine receptor A1 [3], 583 nM; at Adenosine receptor A2b [4], 6300 nM.

On to `CCCn1c(-c2ccco2)nc2c(NCCCc3ccccc3)ncnc21`, for which the Ki at Adenosine receptor A2a [1] came to 181 nM; on Adenosine receptor A3 [2] it was 959 nM; on Adenosine receptor A1 [3], 378 nM; on Adenosine receptor A2b [4], 1870 nM.

For `CCCn1c(Br)nc2c(N)ncnc21`, the Ki on Adenosine receptor A3 [2] is over 100000 nM.

For the compound `CCCn1cnc2c(N)ncnc21`, on Adenosine receptor A3 [2], the Ki was over 100000 nM.

As to `CCCn1c(Br)nc2c(N)nc(NCCc3ccccc3)nc21`, the Ki on Adenosine receptor A2a [1] was determined as 27 nM; at Adenosine receptor A3 [2], 1160 nM; on Adenosine receptor A1 [3], 373 nM; on Adenosine receptor A2b [4] it was 1490 nM.

Consider `CCCn1cnc2c(NCc3ccccc3)ncnc21`, for which the Ki at Adenosine receptor A2a [1] was 22600 nM; at Adenosine receptor A3 [2], 29100 nM; on Adenosine receptor A1 [3], 42800 nM; on Adenosine receptor A2b [4], over 30000 nM.

Consider `CCn1cnc2c(NCCc3ccccc3)ncnc21`, for which the Ki was 1340 nM at Adenosine receptor A2a [5], 8730 nM at Adenosine receptor A1 [6], 10800 nM on Adenosine receptor A3 [7] and 8130 nM at Adenosine receptor A2b [8].

Consider `CCCn1cnc2c(NCCCc3ccccc3)ncnc21`, for which the Ki at Adenosine receptor A2a [1] is 13000 nM; at Adenosine receptor A3 [2] it was 30000 nM; on Adenosine receptor A1 [3], 18600 nM; at Adenosine receptor A2b [4], over 30000 nM.

On to `CCCn1c(-c2ccco2)nc2c(NCCc3ccccc3)ncnc21`, for which the Ki at Adenosine receptor A2a [1] came to 547 nM; on Adenosine receptor A3 [2], 811 nM; at Adenosine receptor A1 [3], 2440 nM; at Adenosine receptor A2b [4], 9280 nM.

As for `CCCn1c(Br)nc2c(NCc3ccccc3)ncnc21`, the Ki was determined as 1180 nM on Adenosine receptor A2a [1], 11100 nM at Adenosine receptor A3 [2], 5620 nM on Adenosine receptor A1 [3] and 7490 nM on Adenosine receptor A2b [4].

For `CCCn1c(-c2ccco2)nc2c(N)nc(NCCc3ccccc3)nc21`, the Ki at Adenosine receptor A2a [1] was determined as 14 nM; at Adenosine receptor A3 [2] it was 56 nM; on Adenosine receptor A1 [3], 80 nM; at Adenosine receptor A2b [4] it was 2030 nM.

Take `CCCn1c(-c2ccco2)nc2c(NCc3ccccc3)ncnc21`: the Ki on Adenosine receptor A2a [1] amounted to 80 nM; at Adenosine receptor A3 [2] it was 402 nM; on Adenosine receptor A1 [3], 546 nM; on Adenosine receptor A2b [4] it was 1760 nM.

Regarding `CCn1cnc2c(N)nc(NCCc3ccccc3)nc21`, the Ki was found to be 150 nM at Adenosine receptor A2a [5], 330 nM at Adenosine receptor A1 [6], 3200 nM at Adenosine receptor A3 [7] and 2410 nM on Adenosine receptor A2b [8].

As for `CCn1c(-c2ccco2)nc2c(N)ncnc21`, the Ratio Ki in the experiment listed under Homo sapiens was 6.

Regarding `CCCn1c(Br)nc2c(NCCc3ccccc3)ncnc21`, the Ki at Adenosine receptor A2a [1] came out at 503 nM; at Adenosine receptor A3 [2], 2520 nM; on Adenosine receptor A1 [3] it was 1940 nM; at Adenosine receptor A2b [4], 3190 nM.

As to `CCCn1c(-c2ccco2)nc2c(N)nc(NCc3ccccc3)nc21`, the Ki came out at 6.6 nM on Adenosine receptor A2a [1], 29 nM on Adenosine receptor A3 [2], 138 nM on Adenosine receptor A1 [3] and 4610 nM on Adenosine receptor A2b [4].

Consider `CCCn1c(Br)nc2c(NCCCc3ccccc3)ncnc21`, for which the Ki on Adenosine receptor A2a [1] was determined as 1020 nM; at Adenosine receptor A3 [2] it was 12200 nM; at Adenosine receptor A1 [3], 2670 nM; on Adenosine receptor A2b [4], 1760 nM.
